Columns and labels:
Type in all cases: in vivo
[1] = system: goosegrass (Eleusine indica); assay: Test C preemergence
Excerpt: (§1) Seeds of plant species selected from bermudagrass (Cynodon dactylon), Surinam grass (Brachiaria decumbens), cocklebur (Xanthium strumarium), corn (Zea mays), crabgrass (Digitaria sanguinalis), woolly cupgrass (Eriochloa villosa), giant foxtail (Setaria faberii), goosegrass (Eleusine indica), johnsongrass (Sorghum halepense), kochia (Kochia scoparia), lambsquarters (Chenopodium album), morningglory (Ipomoea hederacea), yellow nutsedge (Cyperus esculentus), pigweed (Amaranthus retroflexus), common ragweed (Ambrosia elatior), soybean (Glycine max) and velvetleaf (Abutilon theophrasti) were planted and treated preemergence with test chemicals formulated in a non-phytotoxic solvent mixture which included a surfactant.
(§2) At the same time, plants selected from these crop and weed species and also winter barley (Hordeum vulgare), blackgrass (Alopecurus myosuroides), canary grass (Phalaris minor), chickweed (Stellaria media), downy brome (Bromus tectorum), green foxtail (Setaria viridis), Italian ryegrass (Lolium multiflorum), wheat (Triticum aestivum), wild oat (Avena fatua) and windgrass (Apera spica-venti) were treated with postemergence applications of some of the test chemicals formulated in the same manner. Plants ranged in height from 2 to 18 cm (1- to 4-leaf stage) for postemergence treatments. Plant species in the flooded paddy test consisted of rice (Oryza saliva), smallflower flatsedge (Cyperus difformis), duck salad (Heteranthera limosa) and barnyardgrass (Echinochloa crus-galli) grown to the 2-leaf stage for testing. Treated plants and controls were maintained in a greenhouse for 12 to 14 days, after which time all species were compared to controls and visually evaluated. Plant response ratings, summarized in Table C, are based on a scale of 0 to 100 where 0 is no effect and 100 is complete control. A dash (-) response means no test result.

[2] = system: bermudagrass (Cynodon dactylon); assay: Test C preemergence
Excerpt: as §1, §2

Nightshade = assay: Test C preemergence
Excerpt: as §1, §2

kochia (Kochia scoparia) = assay: Test C preemergence
Excerpt: as §1, §2

[3] = system: Surinam grass (Brachiaria decumbens); assay: Test C preemergence
Excerpt: as §1, §2

[4] = system: cocklebur (Xanthium strumarium); assay: Test C preemergence
Excerpt: as §1, §2

[5] = system: velvetleaf (Abutilon theophrasti); assay: Test C preemergence
Excerpt: as §1, §2

[6] = system: morningglory (Ipomoea hederacea); assay: Test C preemergence
Excerpt: as §1, §2

Sunflower = assay: Test C preemergence; details: Rate 500 g/ha, scale 0 to 100
Excerpt: as §1, §2

[7] = system: lambsquarters (Chenopodium album); assay: Test C preemergence
Excerpt: as §1, §2

[8] = system: woolly cupgrass (Eriochloa villosa); assay: Test C preemergence
Excerpt: as §1, §2

[9] = system: common ragweed (Ambrosia elatior); assay: Test C preemergence
Excerpt: as §1, §2

[10] = system: johnsongrass (Sorghum halepense); assay: Test C preemergence
Excerpt: as §1, §2

[11] = system: crabgrass (Digitaria sanguinalis); assay: Test C preemergence
Excerpt: as §1, §2

corn (Zea mays) = assay: Test C preemergence
Excerpt: as §1, §2

soybean (Glycine max) = assay: Test C preemergence
Excerpt: as §1, §2

[12] = system: yellow nutsedge (Cyperus esculentus); assay: Test C preemergence
Excerpt: as §1, §2

[13] = system: giant foxtail (Setaria faberii); assay: Test C preemergence
Excerpt: as §1, §2

[14] = system: pigweed (Amaranthus retroflexus); assay: Test C preemergence
Excerpt: as §1, §2

[15] = system: smallflower flatsedge (Cyperus difformis); assay: Test C flooded paddy test; details: for Flatsedge plant response rating: Flooded Paddy, scale 0 to 100, 0 no effect, 100 complete control; for Plant response rating, Flatsedge: flooded paddy test, scale 0 to 100 (0 no effect, 100 complete control)
Method in brief: (§3)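 Greenhouse-maintained for 12 to 14 days after treatment, the paddy plants (2-leaf stage at application) were scored visually against controls. A score of 0 denotes no effect and a score of 100 denotes complete control.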

[16] = system: barnyardgrass (Echinochloa crus-galli); assay: Test C flooded paddy test; details: for Barnyardgrass plant response rating: Flooded Paddy, scale 0 to 100, 0 no effect, 100 complete control; for Plant response rating, Barnyardgrass: flooded paddy test, scale 0 to 100 (0 no effect, 100 complete control)
Method in brief: as §3

[17] = system: duck salad (Heteranthera limosa); assay: Test C flooded paddy test; details: for Ducksalad plant response rating: Flooded Paddy, scale 0 to 100, 0 no effect, 100 complete control; for Plant response rating, Ducksalad: flooded paddy test, scale 0 to 100 (0 no effect, 100 complete control)
Method in brief: as §3

[18] = Preemergence, Rate 500 g/ha, scale 0 to 100
[19] = Rate 62 g/ha, scale 0 to 100, 0 no effect, 100 complete control
[20] = preemergence, Rate 250 g/ha, visual evaluation after 12 to 14 days
[21] = preemergence, Rate 125 g/ha, scale 0 to 100, 0 no effect, 100 complete control

## CC(C)(C)c1ccn(C2CCN(c3ccc(Cl)c(Br)c3)C2=O)n1 (stereo not shown) [Compound 56]
[1]; [18]
  Plant response rating, Goosegrass: 100
[1]; [19]
  Plant response rating, Goosegrass: 60
[1]; [20]
  Plant response rating (0 to 100), Goosegrass: 90
[1]; [21]
  Plant response rating, Goosegrass: 80
[2]; [18]
  Plant response rating, Bermudagrass: 100
[2]; [19]
  Plant response rating, Bermudagrass: 40
[2]; [20]
  Plant response rating (0 to 100 where 0 is no effect and 100 is complete control), Bermudagrass: 90
[2]; [21]
  Plant response rating, Bermudagrass: 50
Nightshade; [19]
  Plant response rating, Nightshade: 0
Nightshade; Rate 125 g/ha, scale 0 to 100, 0 no effect, 100 complete control
  Plant response rating, Nightshade: 0
Nightshade; Rate 500 g/ha, scale 0 to 100
  Plant response rating, Nightshade: 20
Kochia (Kochia scoparia); [18]
  Plant response rating, Kochia: 100
Kochia (Kochia scoparia); [19]
  Plant response rating, Kochia: 50
Kochia (Kochia scoparia); [20]
  Plant response rating (0 to 100), Kochia: 100
Kochia (Kochia scoparia); [21]
  Plant response rating, Kochia: 70
[3]; [18]
  Plant response rating, Surinam grass: 0
[3]; [19]
  Plant response rating, Surinam grass: 0
[3]; [20]
  Plant response rating (0 to 100), Surinam grass: 0
[3]; [21]
  Plant response rating, Surinam grass: 0
[4]; [18]
  Plant response rating, Cocklebur: 100
[4]; [19]
  Plant response rating, Cocklebur: 0
[4]; [20]
  Plant response rating (0 to 100), Cocklebur: 0
[4]; [21]
  Plant response rating, Cocklebur: 0
[5]; [18]
  Plant response rating, Velvetleaf: 20
[5]; [20]
  Plant response rating (0 to 100), Velvetleaf: 0
[5]; [21]
  Plant response rating, Velvetleaf: 0
[6]; [18]
  Plant response rating, Morningglory: 0
[6]; [19]
  Plant response rating, Morningglory: 0
[6]; [20]
  Plant response rating (0 to 100), Morningglory: 0
[6]; [21]
  Plant response rating, Morningglory: 0
Sunflower
  Plant response rating, Sunflower: 0
[7]; [18]
  Plant response rating, Lambsquarters: 100
[7]; [19]
  Plant response rating, Lambsquarters: 100
[7]; [20]
  Plant response rating (0 to 100), Lambsquarters: 100
[7]; [21]
  Plant response rating, Lambsquarters: 100
[8]; [18]
  Plant response rating, Cupgrass, Woolly: 70
[8]; [19]
  Plant response rating, Cupgrass, Woolly: 0
[8]; [20]
  Plant response rating (0 to 100), Cupgrass, Woolly: 0
[8]; [21]
  Plant response rating, Cupgrass, Woolly: 0
[9]; [18]
  Plant response rating, Ragweed, Common: 20
[9]; [20]
  Plant response rating (0 to 100), Ragweed, Common: 0
[9]; [21]
  Plant response rating, Ragweed, Common: 0
[10]; [18]
  Plant response rating, Johnsongrass: 0
[10]; [19]
  Plant response rating, Johnsongrass: 0
[10]; [20]
  Plant response rating (0 to 100), Johnsongrass: 0
[10]; [21]
  Plant response rating, Johnsongrass: 0
[11]; [18]
  Plant response rating, Crabgrass: 100
[11]; [19]
  Plant response rating, Crabgrass: 30
[11]; [20]
  Plant response rating (0 to 100), Crabgrass: 90
[11]; [21]
  Plant response rating, Crabgrass: 30
Corn (Zea mays); [18]
  Plant response rating, Corn: 0
Corn (Zea mays); [19]
  Plant response rating, Corn: 0
Corn (Zea mays); [20]
  Plant response rating (0 to 100), Corn: 0
Corn (Zea mays); [21]
  Plant response rating, Corn: 0
Soybean (Glycine max); [18]
  Plant response rating, Soybean: 0
Soybean (Glycine max); [20]
  Plant response rating (0 to 100), Soybean: 0
Soybean (Glycine max); [21]
  Plant response rating, Soybean: 0
[12]; [18]
  Plant response rating, Nutsedge: 0
[12]; [19]
  Plant response rating, Nutsedge: 0
[12]; [20]
  Plant response rating (0 to 100), Nutsedge: 0
[12]; [21]
  Plant response rating, Nutsedge: 0
[13]; [18]
  Plant response rating, Foxtail, Giant: 90
[13]; [19]
  Plant response rating, Foxtail, Giant: 0
[13]; [21]
  Plant response rating, Foxtail, Giant: 0
[14]; [18]
  Plant response rating, Pigweed: 100
[14]; [20]
  Plant response rating (0 to 100), Pigweed: 0
[14]; [21]
  Plant response rating, Pigweed: 90
[15]; Rate 250 g/ha
  Flatsedge plant response rating: 90
[15]; Rate 500 g/ha
  Flatsedge plant response rating: 90
[15]; Rate 62 g/ha
  Plant response rating, Flatsedge: 80
[15]; Rate 125 g/ha
  Plant response rating, Flatsedge: 80
[16]; Rate 250 g/ha
  Barnyardgrass plant response rating: 30
[16]; Rate 500 g/ha
  Barnyardgrass plant response rating: 30
[16]; Rate 62 g/ha
  Plant response rating, Barnyardgrass: 0
[16]; Rate 125 g/ha
  Plant response rating, Barnyardgrass: 30
[17]; Rate 250 g/ha
  Ducksalad plant response rating: 0
[17]; Rate 500 g/ha
  Ducksalad plant response rating: 0
[17]; Rate 62 g/ha
  Plant response rating, Ducksalad: 0
[17]; Rate 125 g/ha
  Plant response rating, Ducksalad: 0
